# Measurements from patent US20100298377A1, “NOVEL SUBSTITUTED INDAZOLES, THE PREPARATION THEREOF AND USE OF SAME IN THERAPEUTICS” (SANOFI-AVENTIS, priority 2007, published 2010).
# Where a name gives a salt, the structure may show the parent alone.
# Experiments:
# AKT1 = AKT1 (Homo sapiens, UniProt P31749, S473D); assay: Determination of the IC50 for AKT1 (HTRF); type: biochemical; settings: AKT1 without PH domain, activated by PDK1
# Protocol: Determination of the IC50 for AKT1
# The inhibitory potential of the compounds is evaluated by HTRF, a time-resolved fluorescence technique based on non-radiative energy transfer (FRET). […] This phosphorylation allows the kinase activity of AKT1 to be activated.
# Starting with a 10 mM solution of inhibitors, 3 μl are taken and placed in a 96-well polypropylene plate containing 27 μl of 100% DMSO. The various test compounds are diluted in cascade by taking 15 μl of compound, to which are added 30 μl of 100% DMSO.
# The various reaction components are added in the following manner:
# Next, 10 μl of the inhibitor solution are added. Finally, the reaction is initiated by adding 10 μl of a solution containing both 100 μM of ATP and 10 μM of biotinylated peptide. The sequence of this peptide is as follows: biot-[…] (reference Neosystem SP000560). The plate is then covered with a plastic film, agitated and finally incubated at RT for 30 minutes. […] After incubation overnight at 4° C., the plate is read using an Ultra evolution spectrophotometer from Tecan. […] All the tests are performed in duplicate and the mean of the two tests is calculated.
# For each point, a delta F is calculated in the following manner:
# (§1) R(Ratio)=counts665 nm/counts620 nm
# ΔF % is calculated by the Tecan Ultra Evolution machine.
# [1] = biological target: T1, Human S6K1 (24-421) T412E protein (Homo sapiens, UniProt P23443, T412E); assay: Determination of the IC50 for S6K1 (HTRF substrate phosphorylation test); type: biochemical; settings: S6K1 activated by PDK1, ATP 30 μM
# T1 construct: Human S6K1 (24-421) T412E protein; made in house; host or cells: Sf21 insect cells
# Protocol: Determination of the IC50 for S6K1
# The inhibitory potential of the compounds for S6K1 is evaluated in an enzymatic test of phosphorylation of substrate in HTRF (Homogenous Time-Resolved Fluorescence) format. Human S6K1 (24-421) T412E protein is expressed in sf21 cells and purified by chromatography on a nickel chelate column. It is activated by PDK1.
# The test comprises two steps, both performed at RT. The phosphorylation reaction takes place during the first step and the revelation step is performed during the second. […] The final concentrations of compounds thus obtained during the incubation period range from 10 μM to 0.17 nM and the concentration of enzyme is 2 nM. After incubation for 20 minutes, the reaction is stopped and the revelation initiated by addition of 30 μl of a mixture of streptavidin XL 665 Xlent, ref. 611SAXLB Cis bio international, and a europium cryptate-coupled anti-phospho-GSK3 antibody, ref. 64CUSKAZ Cis bio international, dissolved in the revelation buffer (HEPES/NaOH 166.7 mM, EDTA 221.7 mM, KF 667.7 mM, BSA 0.167%, pH 7.0). The reaction takes place in a black half-well plate ref. 3694 Costar.
# A mixture of the reaction medium after each addition of reagent is obtained by agitation for a few minutes at 700-1000 rpm on a Heidolph Titramax 100 machine. The reading is taken on a TECAN Ultra Evolution machine after at least one night and up to 3 nights at 4° C. The reading settings are as follows: excitation wavelength 320 nm, emission wavelengths 620 and 665 nm, lag time 150 μs, integration time 500 μs.
# For each point, the ΔF % is calculated as follows:
# as §1
# The IC50 values are calculated by means of the XLfit4 205 equation.
# AKT1, sequence (P31749 118-480 S473D limits assumed): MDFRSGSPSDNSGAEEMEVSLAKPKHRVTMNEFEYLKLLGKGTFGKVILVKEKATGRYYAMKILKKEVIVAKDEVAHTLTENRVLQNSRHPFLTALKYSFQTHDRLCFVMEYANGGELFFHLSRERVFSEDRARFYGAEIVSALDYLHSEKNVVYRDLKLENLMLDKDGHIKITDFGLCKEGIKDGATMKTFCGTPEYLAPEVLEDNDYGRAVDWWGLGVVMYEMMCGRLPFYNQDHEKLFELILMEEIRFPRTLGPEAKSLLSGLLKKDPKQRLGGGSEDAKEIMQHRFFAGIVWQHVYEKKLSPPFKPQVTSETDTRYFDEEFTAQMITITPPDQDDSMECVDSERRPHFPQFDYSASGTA
# T1 sequence (P23443 24-421 T412E): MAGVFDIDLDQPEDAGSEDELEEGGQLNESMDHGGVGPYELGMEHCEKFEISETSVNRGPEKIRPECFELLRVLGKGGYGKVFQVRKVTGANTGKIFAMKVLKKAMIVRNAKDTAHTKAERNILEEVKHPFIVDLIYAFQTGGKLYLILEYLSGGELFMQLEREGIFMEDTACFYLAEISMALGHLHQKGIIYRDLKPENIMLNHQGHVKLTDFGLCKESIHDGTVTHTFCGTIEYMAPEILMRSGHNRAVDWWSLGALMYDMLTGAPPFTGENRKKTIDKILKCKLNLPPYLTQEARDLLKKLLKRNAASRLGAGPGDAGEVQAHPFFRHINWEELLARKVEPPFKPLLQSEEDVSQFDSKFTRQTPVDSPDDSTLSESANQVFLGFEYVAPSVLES
Compound,melting point [°C],IC50 (AKT1) [nM],IC50 [1] [nM]
"O=C(Nc1ccc2[nH]nc(C#Cc3ccccc3)c2c1)N[C@@H](c1ccc(Cl)c(Cl)c1)[C@@H]1CCCCN1 (as salt: fumaric acid salt) [Ex 26, 1-{(S)-(3,4-Dichlorophenyl)[(2S)-piperid-2-yl]methyl}-3-[3-(phenylethynyl)-1H-indazol-5-yl]urea]",160,–,–
"CN1CCCCC1C(NC(=O)Nc1ccc2[nH]nc(CCc3ccccc3)c2c1)c1ccccc1 (as salt: fumaric acid salt) [Ex 27, 1-[(1-Methylpiperid-2-yl)(phenyl)methyl]-3-[3-(2-phenylethyl)-1H-indazol-5-yl]urea((S,2S),(R,2R))]",205,–,–
"Nc1n[nH]c2ccc(NC(=O)N[C@@H](c3ccc(Cl)c(Cl)c3)[C@@H]3CCCCN3)cc12 (as salt: hydrochloride) [Ex 29, 1-(3-Amino-1H-indazol-5-yl)-3-{(S)-(3,4-dichlorophenyl)[(2S)-piperid-2-yl]methyl}urea]",214,–,–
"O=C(Nc1ccc2[nH]ncc2c1)O[C@@H](c1ccc(Cl)c(Cl)c1)[C@@H]1CCCCN1 (as salt: hydrochloride) [Ex 38b, (S)-(3,4-Dichlorophenyl)[(2S)-piperid-2-yl]methyl 1H-indazol-5-ylcarbamate]",194,–,–
"O=C(Nc1ccc2[nH]ncc2c1)N[C@@H](c1ccccc1)[C@@H]1CCCCN1 [Ex 8, 1-{(S)-(Phenyl)[(2S)-piperid-2-yl]methyl}-3-(1H-indazol-5-yl)urea]",195,< 100,500 to 2000
"Nc1n[nH]c2ccc(NC(=O)N[C@@H](c3ccc(Cl)c(Cl)c3)[C@@H]3CCCCN3)cc12 [Ex 29, 1-(3-Amino-1H-indazol-5-yl)-3-{(S)-(3,4-dichlorophenyl)[(2S)-piperid-2-yl]methyl}urea]",–,< 100,500 to 2000
"O=C(Nc1ccc2[nH]ncc2c1)O[C@H](c1ccc(Cl)c(Cl)c1)[C@@H]1CCCCN1 [Ex 38c, (R)-(3,4-Dichlorophenyl)[(2S)-piperid-2-yl]methyl 1H-indazol-5-ylcarbamate]",–,100 to 500,100 to 500
"O=C(Nc1ccc2[nH]ncc2c1)O[C@@H](c1cccc(C(=O)NC2CCCCC2)c1)[C@@H]1CCCCN1 [Ex 47, (S)-(3-Cyclohexylcarbamoylphenyl)-(S)-piperid-2-ylmethyl (1H-Indazol-5-yl)carbamate]",–,< 100,100 to 500

# More lines, now with the values ahead:
melting point [°C],IC50 (AKT1) [nM],IC50 [1] [nM],Compound
194,–,–,"CN1CCCCC1C(c1ccccc1)N(C)C(=O)Nc1ccc2[nH]ncc2c1 (as salt: fumaric acid salt) [Ex 32, 3-(1H-Indazol-5-yl)-1-methyl-1-[(1-methylpiperid-2-yl)phenylmethyl]urea((S,2S),(R,2R))]"
205,–,–,"CN(C(=O)NC(c1ccccc1)C1CCCCN1C)c1ccc2[nH]ncc2c1 (as salt: fumaric acid salt) [Ex 33, 1-(1H-Indazol-5-yl)-1-methyl-3-[(1-methylpiperid-2-yl)(phenyl)methyl]urea((S,2S),(R,2R))]"
208,–,–,"O=C(Nc1ccc2[nH]ncc2c1)N[C@@H](c1cc(F)cc(Cl)c1)[C@@H]1CCCCN1 (as salt: hydrochloride) [Ex 3, 1-{(S)-(3-Chloro-5-fluorophenyl)[(2S)-piperid-2-yl]methyl}-3-(1H-indazol-5-yl)urea]"
192,–,–,"CN1CCCCC1C(NC(=O)Nc1ccc2[nH]ncc2c1)c1cc(F)cc(Cl)c1 (stereo not drawn) (as salt: hydrochloride) [Ex 11, 1-[(3-Chloro-5-fluorophenyl)(1-methylpiperid-2-yl)methyl]-3-(1H-indazol-5-yl)urea]"
220,–,–,"O=C(Nc1ccc2[nH]ncc2c1)OC(c1cc(Cl)cc(Cl)c1)C1CCCCN1 (as salt: hydrochloride) [Ex 34, (3,5-Dichlorophenyl)[piperid-2-yl]methyl 1H-indazol-5-ylcarbamate((S,2S),(R,2R))]"
226,–,–,"O=C(Nc1ccc2[nH]ncc2c1)O[C@@H](c1cc(F)cc(Cl)c1)[C@@H]1CCCCN1 (as salt: hydrochloride) [Ex 35, (S)-(3-Chloro-5-fluorophenyl)[(2S)-piperid-2-yl]methyl 1H-indazol-5-ylcarbamate]"
172,–,–,"CN1CCCCC1C(OC(=O)Nc1ccc2[nH]ncc2c1)c1cc(F)cc(Cl)c1 (stereo not drawn) (as salt: hydrochloride) [Ex 36, (3-Chloro-5-fluorophenyl)(1-methylpiperid-2-yl)methyl 1H-indazol-5-ylcarbamate]"
147 to 149,100 to 500,500 to 2000,"O=C(Nc1ccc2[nH]ncc2c1)N[C@H](c1ccccc1)[C@H]1CCCCN1 [Ex 9, 1-{(R)-(Phenyl)[(2R)-piperid-2-yl]methyl}-3-(1H-indazol-5-yl)urea]"
195,100 to 500,–,"C=CCN1CCCC[C@H]1[C@@H](NC(=O)Nc1ccc2[nH]ncc2c1)c1ccccc1 [Ex 10, 1-{(S)-(Phenyl)[(2S)-1-allylpiperid-2-yl]methyl}-3-(1H-indazol-5-yl)urea]"
–,500 to 2000,500 to 2000,"O=C(Nc1ccc2[nH]ncc2c1)O[C@H](c1cc(F)cc(Cl)c1)[C@@H]1CCCCN1 [Ex 40, (R)-(3-Chloro-5-fluorophenyl)[(2S)-piperid-2-yl]methyl 1H-indazol-5-ylcarbamate]"
